According to patent US8304394B2, “Low side effect pharmaceutical composition containing isoniazid” (priority 2008, dated 2012):

Legend:
[1] = molecular target: human liver microsomal cytochrome P450 2E1 (CYP2E1) (Homo sapiens, UniProt P05181); experiment: Chlorzoxazone hydroxylation inhibition (6-OH-CZX by LC/MS/MS)
CYP2E1 [2] = molecular target: T1, CYP2E1 (Homo sapiens, UniProt P05181); experiment: as above; conditions: human, microsomes, pH 7.4
CYP2E1 [3] = molecular target: T1, CYP2E1; experiment: in vitro; conditions: for inhibition at 40 min, 33 µM: pH 7.4; for inhibition at 40 min, 16.5 µM / inhibition at 40 min, 66 µM: pH 7.4, Inhibition of CYP 2E1 (%); for inhibition at 40 min, 16.5 µM: tested concentration 16.5 μM; for inhibition at 40 min, 66 µM: tested concentration 66 μM
[4] = molecular target: cDNA expressed human cytochrome P450 2E1 (CYP2E1) (Homo sapiens, UniProt P05181); conditions: tested concentration 33 μM
Chain of cDNA expressed human cytochrome P450 2E1 (CYP2E1) (P05181 whole entry): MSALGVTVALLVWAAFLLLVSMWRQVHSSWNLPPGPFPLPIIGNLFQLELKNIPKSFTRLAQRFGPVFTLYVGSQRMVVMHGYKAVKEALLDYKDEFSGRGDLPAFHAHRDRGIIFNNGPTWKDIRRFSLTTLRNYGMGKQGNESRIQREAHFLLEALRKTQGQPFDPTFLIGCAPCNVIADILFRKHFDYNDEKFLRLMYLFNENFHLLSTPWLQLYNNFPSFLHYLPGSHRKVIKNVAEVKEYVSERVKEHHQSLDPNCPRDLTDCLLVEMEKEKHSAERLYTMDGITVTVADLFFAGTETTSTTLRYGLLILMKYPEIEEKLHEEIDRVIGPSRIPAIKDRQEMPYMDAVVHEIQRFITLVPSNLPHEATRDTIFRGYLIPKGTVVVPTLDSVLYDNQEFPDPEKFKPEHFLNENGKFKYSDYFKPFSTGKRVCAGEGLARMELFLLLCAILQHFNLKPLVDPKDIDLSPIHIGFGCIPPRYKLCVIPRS

Chain of human liver microsomal cytochrome P450 2E1 (CYP2E1) (P05181 whole entry): as above
T1 sequence (P05181 whole entry): as above

Compound | inhibition at 30 min, 16.5 µM (CYP2E1 [2]) [%] | inhibition at 30 min, 33 µM (CYP2E1 [2]) [%] | inhibition at 30 min, 66 µM (CYP2E1 [2]) [%] | inhibition at 40 min, 33 µM (CYP2E1 [3]) [%] | inhibition at 40 min, 16.5 µM (CYP2E1 [3]) [%] | inhibition at 40 min, 66 µM (CYP2E1 [3]) [%] | also measured
O=c1cc(-c2ccc(O)c(O)c2)oc2cc(O[C@@H]3O[C@H](CO)[C@@H](O)[C@H](O)[C@H]3O)cc(O)c12 [Luteolin-7-Glucoside] |  |  |  |  |  |  | Inhibition of CYP 2E1 (%) ([1]; tested concentration 16.5 μM): 42.96 ± 5.10%; Inhibition of CYP 2E1 (%) ([1]; tested concentration 33 μM): 55.87 ± 0.67%; Inhibition of CYP 2E1 (%) ([1]; tested concentration 66 μM): 60.26 ± 1.11%
O=c1cc(-c2ccc(O)c(O)c2)oc2cc(O)cc(O)c12 [Luteolin] | 39.1 ± 3.42 | 43.4 ± 4.74 | 53.2 ± 1.78 |  |  |  | 
O=c1c(O)c(-c2ccc(O)cc2O)oc2cc(O)cc(O)c12 [Morin] | 36.9 ± 1.56 | 52.1 ± 1.7 | 60.3 ± 1.56 |  |  |  | 
O=c1c(O)c(-c2cc(O)c(O)c(O)c2)oc2cc(O)cc(O)c12 [Myricetin] | 42.2 ± 2.55 | 59.2 ± 1.27 | 61.6 ± 0.88 |  |  |  | 
O=C1C[C@@H](c2ccc(O)cc2)Oc2cc(O)cc(O)c21 [Naringenin] | 19.5 ± 2.02 | 28.4 ± 2.21 | 45.2 ± 4.43 | 36.8 ± 3.97 | 25.1 ± 7.6 | 41.8 ± 3.51 | 
COc1ccc([C@@H]2CC(=O)c3c(O)cc(O[C@@H]4O[C@H](CO)[C@@H](O)[C@H](O)[C@H]4O[C@@H]4O[C@@H](C)[C@H](O)[C@@H](O)[C@H]4O)cc3O2)cc1O [Neohesperidin] |  |  |  |  |  |  | Inhibition of CYP 2E1 (%) ([1]; tested concentration 16.5 μM): 42.81 ± 1.75%; Inhibition of CYP 2E1 (%) ([1]; tested concentration 33 μM): 48.96 ± 2.37%; Inhibition of CYP 2E1 (%) ([1]; tested concentration 66 μM): 58.70 ± 1.06%
O=C(CCc1ccc(O)cc1)c1c(O)cc(O)cc1O [Phloretin] | 29.6 ± 3.21 | 39.8 ± 3.28 | 50.9 ± 2.09 | 54.7 ± 2.84 | 42 ± 3.63 | 66.8 ± 4.79 | 
O=C(CCc1ccc(O)cc1)c1c(O)cc(O)cc1O[C@@H]1O[C@H](CO)[C@@H](O)[C@H](O)[C@H]1O [Phloridzin] |  |  |  | 3.76 ± 3.58 | 1.25 ± 7.9 | 1.42 ± 9.28 | 
O=C(O)c1ccc(O)c(O)c1 [Protocatechuic acid] |  |  |  | 19.9 ± 8.95 | 25.7 ± 12.7 | 22.8 ± 4.07 | 
O=c1c(-c2ccc(O)cc2)coc2c([C@@H]3O[C@H](CO)[C@@H](O)[C@H](O)[C@H]3O)c(O)ccc12 [Puerarin] |  |  |  | -4.64 ± 3.47 | 0.43 ± 2.31 | -12.9 ± 2.75 | 
O=c1c(O)c(-c2ccc(O)c(O)c2)oc2cc(O)cc(O)c12 [Quercetin] | 46.4 ± 4.68 | 53 ± 2.17 | 73.3 ± 1.57 |  |  |  | 
C[C@@H]1O[C@@H](Oc2c(-c3ccc(O)c(O)c3)oc3cc(O)cc(O)c3c2=O)[C@H](O)[C@H](O)[C@H]1O [Quercitrin] | 33.5 ± 4.29 | 53.8 ± 3.51 | 61 ± 5.88 |  |  |  | 
C[C@@H]1O[C@@H](OC[C@H]2O[C@@H](Oc3c(-c4ccc(O)c(O)c4)oc4cc(O)cc(O)c4c3=O)[C@H](O)[C@@H](O)[C@@H]2O)[C@H](O)[C@H](O)[C@H]1O [Rutin] | 30 ± 0.81 | 30.1 ± 1.62 | 43.5 ± 3.09 |  |  |  | 
COc1cc(C2Oc3cc([C@H]4Oc5cc(O)cc(O)c5C(=O)[C@@H]4O)ccc3OC2CO)ccc1O (stereo partly shown) [Silybin] | 59.5 ± 2.34 | 37.1 ± 1.15 | 39 ± 1.19 |  |  |  | 
COc1ccc(-c2oc3cc(O)cc(O)c3c(=O)c2O)cc1O [Tamarixetin] | 37.4 ± 1.96 | 47.8 ± 2.81 | 50.9 ± 3.12 |  |  |  | 
O=C/C=C/c1ccccc1 [Trans-Cinnamaldehyde] | 60.8 ± 3 | 89.6 ± 1.52 | 92.81 ± 0.53 |  |  |  | 
O=c1cc(-c2ccc(O)cc2)oc2c([C@@H]3O[C@H](CO)[C@@H](O)[C@H](O)[C@H]3O)c(O)cc(O)c12 [Vitexin] | 23.1 ± 1.19 | 30.6 ± 0.78 | 38.7 ± 1.62 |  |  |  | 
COc1c(O)cc(O)c2c(=O)cc(-c3ccccc3)oc12 [Wongonin] |  |  |  |  |  |  | Inhibition of CYP 2E1 (%) [4]: 21.87 ± 1.90%
O=C(O)c1cc(O)c(O)c(O)c1 [gallic acid] | 10.5 ± 1.12 | 18.8 ± 2.03 | 28 ± 1.56 | 42.7 ± 7.36 | 35.6 ± 10 | 48.2 ± 4.2 | 
O=C(O)/C=C/c1ccccc1 [trans-Cinnamic acid] |  |  |  | 4.66 ± 6.5 | 5.71 ± 10.5 | 7.1 ± 6.95 | 
C=CC(=C)CCC=C(C)C [β-Myrcene] | 53.4 ± 4.93 | 75.5 ± 2.14 | 76.5 ± 2.18 |  |  |  | 
(−)-Epicatechin-3-gallate |  |  |  |  |  |  | Inhibition of CYP 2E1 (%) ([1]; tested concentration 16.5 μM): 30.31 ± 1.27%; Inhibition of CYP 2E1 (%) ([1]; tested concentration 33 μM): 34.84 ± 1.72%; Inhibition of CYP 2E1 (%) ([1]; tested concentration 66 μM): 42.92 ± 0.65%
